US20180320217A1, “METHODS FOR SAMPLING AND MEASURING ORAL LAVAGE PROTEINS” (The Procter & Gamble Company, priority 2017, published 2018)
Values joined by “and” are separate entries in the source; they are usually repeats but may differ in a detail not shown here. Equal values may be shown once. “Also recorded” adds a separate entry of the source.

How the values were obtained:
[1] = Formation of formazan dyes: NADH and 1-methoxy PMS, absence of malate (TABLE 15); format: biochemical
diaphorase [2] = assay: Formation of formazan dyes: only diaphorase, not malate (TABLE 13); format: biochemical, Clostridium kluyveri; conditions: mean of three experiments
[3] = Formation of formazan dyes: control buffer and 1-Methoxy PMS, absence of malate (TABLE 21); format: biochemical
oral lavage [4] = assay: Formation of formazan dyes: oral lavage and diaphorase, not malate (TABLE 11); format: biochemical, human
[5] = test system: Malate dehydrogenase and diaphorase; assay: Formation of formazan dyes: Malate dehydrogenase and diaphorase, absence of malate (TABLE 9); format: biochemical, pig heart
diaphorase [6] = assay: Formation of formazan dyes: only diaphorase and malate (TABLE 14); format: biochemical, Clostridium kluyveri; conditions: mean of three experiments
diaphorase [7] = assay: Formation of formazan dyes: NADH and diaphorase, absence of malate (TABLE 7); format: biochemical, Clostridium kluyveri; conditions: NADH and diaphorase, absence of malate
[8] = Formation of formazan dyes: NADH, malate and 1-methoxy PMS (TABLE 16); format: biochemical
oral lavage [9] = assay: Formation of formazan dyes: oral lavage, malate and diaphorase (TABLE 12); format: biochemical, human; conditions: oral lavage, malate and diaphorase
oral lavage [10] = assay: Formation of formazan dyes: oral lavage and 1-Methoxy PMS, absence of malate (TABLE 19); format: biochemical, human
Malate dehydrogenase = biological target: T1, Malate dehydrogenase (Sus scrofa, UniProt P00346); assay: Formation of formazan dyes: Malate dehydrogenase and 1-Methoxy PMS, absence of malate (TABLE 17); format: biochemical, pig heart; parameters: L-malate dehydrogenase (pig heart); purchased Sigma-Aldrich 10127248001 / 10127914001
T1 sequence (P00346 25-338): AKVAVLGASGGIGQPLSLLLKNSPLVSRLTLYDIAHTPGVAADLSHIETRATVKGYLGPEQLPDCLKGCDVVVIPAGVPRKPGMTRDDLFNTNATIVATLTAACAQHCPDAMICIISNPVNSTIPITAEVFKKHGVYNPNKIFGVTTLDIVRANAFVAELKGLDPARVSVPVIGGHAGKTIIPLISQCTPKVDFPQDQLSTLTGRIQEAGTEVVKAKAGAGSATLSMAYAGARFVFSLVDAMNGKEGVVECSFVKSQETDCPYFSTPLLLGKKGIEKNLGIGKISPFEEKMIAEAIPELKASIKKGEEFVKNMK

diaphorase [11] = assay: Formation of formazan dyes: NADH, diaphorase and malate (TABLE 8); format: biochemical, Clostridium kluyveri; conditions: NADH, diaphorase and malate
[12] = test system: Malate dehydrogenase and diaphorase; assay: Formation of formazan dyes: Malate dehydrogenase, diaphorase and malate (TABLE 10); format: biochemical, pig heart
[13] = Formation of formazan dyes: control buffer, malate and 1-Methoxy PMS (TABLE 22); format: biochemical

Q: What does the source list for “2-Benzothiazoryl-3-(4-carboxy-2-methoxyphenyl)-5-[4-(2-sulfoethylcarbamoyl)phenyl]-2H-tetrazolium [WST-4]”?
A: Absorbance, formation of formazan dyes (Means) [1]: 1.52 and 1.57 and 1.64; Absorbance, formation of formazan dyes (Means) (diaphorase [2]; 0 h): 0.22; Absorbance, formation of formazan dyes (Means) (diaphorase [2]; 1 h): 0.35; Absorbance, formation of formazan dyes (Means) (diaphorase [2]; 2 h): 0.40; Absorbance, formation of formazan dyes (Means) (diaphorase [2]; 3 h): 0.40; Absorbance, formation of formazan dyes (Means) (diaphorase [2]; 4 h): 0.38; Absorbance, formation of formazan dyes (Means) (diaphorase [2]; 6 h): 0.30; Absorbance, formation of formazan dyes (Means) (diaphorase [2]; 8 h): 0.32; Absorbance, formation of formazan dyes (Means) (diaphorase [2]; 10 h): 0.36; Absorbance, formation of formazan dyes (Means) (diaphorase [2]; 12 h): 0.39; Absorbance, formation of formazan dyes (Means) [3]: 0.30 and 0.34 and 0.43 and 0.44; Formation of formazan dyes, absorbance, Means 0 h (oral lavage [4]; oral lavage and diaphorase, not malate, 0 h): 0.55; Formation of formazan dyes, absorbance, Means 1 h (oral lavage [4]; oral lavage and diaphorase, not malate, 1 h): 0.74; Formation of formazan dyes, absorbance, Means 2 h (oral lavage [4]; oral lavage and diaphorase, not malate, 2 h): 0.76; Formation of formazan dyes, absorbance, Means 3 h (oral lavage [4]; oral lavage and diaphorase, not malate, 3 h): 0.80; Formation of formazan dyes, absorbance, Means 4 h (oral lavage [4]; oral lavage and diaphorase, not malate, 4 h): 0.78; Formation of formazan dyes, absorbance, Means 6 h (oral lavage [4]; oral lavage and diaphorase, not malate, 6 h): 0.88; Formation of formazan dyes, absorbance, Means 8 h (oral lavage [4]; oral lavage and diaphorase, not malate, 8 h): 0.90; Formation of formazan dyes, absorbance, Means 10 h (oral lavage [4]; oral lavage and diaphorase, not malate, 10 h): 0.87; Formation of formazan dyes, absorbance, Means 12 h (oral lavage [4]; oral lavage and diaphorase, not malate, 12 h): 0.93; reduction to formazan dyes by pooled oral lavage (oral lavage [4]; pooled oral lavage of high bleeder group, diaphorase, no added malate (TABLE 11)): partially reduced to formazan dyes; Formation of formazan dyes, absorbance, Means 0 h ([5]; Malate dehydrogenase and diaphorase, absence of malate, 0 h): 0.51; Formation of formazan dyes, absorbance, Means 1 h ([5]; Malate dehydrogenase and diaphorase, absence of malate, 1 h): 0.83; Formation of formazan dyes, absorbance, Means 2 h ([5]; Malate dehydrogenase and diaphorase, absence of malate, 2 h): 0.99; Formation of formazan dyes, absorbance, Means 3 h ([5]; Malate dehydrogenase and diaphorase, absence of malate, 3 h): 1.06; Formation of formazan dyes, absorbance, Means 4 h ([5]; Malate dehydrogenase and diaphorase, absence of malate, 4 h): 1.17; Formation of formazan dyes, absorbance, Means 6 h ([5]; Malate dehydrogenase and diaphorase, absence of malate, 6 h): 1.24; Formation of formazan dyes, absorbance, Means 8 h ([5]; Malate dehydrogenase and diaphorase, absence of malate, 8 h): 1.35; Formation of formazan dyes, absorbance, Means 10 h ([5]; Malate dehydrogenase and diaphorase, absence of malate, 10 h): 1.44; Formation of formazan dyes, absorbance, Means 12 h ([5]; Malate dehydrogenase and diaphorase, absence of malate, 12 h): 1.47; reduction of tetrazolium dye in the absence of substrate malate ([5]; malate dehydrogenase and diaphorase (TABLE 9)): partially reduced; Absorbance, formation of formazan dyes (Means) (diaphorase [6]; 0 h): 0.08; Absorbance, formation of formazan dyes (Means) (diaphorase [6]; 1 h): 0.10; Absorbance, formation of formazan dyes (Means) (diaphorase [6]; 2 h): 0.12; Absorbance, formation of formazan dyes (Means) (diaphorase [6]; 3 h): 0.14; Absorbance, formation of formazan dyes (Means) (diaphorase [6]; 4 h): 0.16; Absorbance, formation of formazan dyes (Means) (diaphorase [6]; 6 h): 0.19; Absorbance, formation of formazan dyes (Means) (diaphorase [6]; 8 h): 0.23; Absorbance, formation of formazan dyes (Means) (diaphorase [6]; 10 h): 0.26; Absorbance, formation of formazan dyes (Means) (diaphorase [6]; 12 h): 0.27; Formation of formazan dyes, absorbance, Means 0 h (diaphorase [7]; 0 h): 1.96; Formation of formazan dyes, absorbance, Means 1 h (diaphorase [7]; 1 h): 2.01; Formation of formazan dyes, absorbance, Means 2 h (diaphorase [7]; 2 h): 2.04; Formation of formazan dyes, absorbance, Means 3 h (diaphorase [7]; 3 h): 2.08; Formation of formazan dyes, absorbance, Means 4 h (diaphorase [7]; 4 h): 2.20; Formation of formazan dyes, absorbance, Means 6 h (diaphorase [7]; 6 h): 2.25; Formation of formazan dyes, absorbance, Means 8 h (diaphorase [7]; 8 h): 2.29; Formation of formazan dyes, absorbance, Means 10 h (diaphorase [7]; 10 h): 2.30; Formation of formazan dyes, absorbance, Means 12 h (diaphorase [7]; 12 h): 2.32; Absorbance, formation of formazan dyes (Means) [8]: 1.32 and 1.31 and 1.29 and 1.30; Formation of formazan dyes, absorbance, Means 0 h (oral lavage [9]; 0 h): 0.44; Formation of formazan dyes, absorbance, Means 1 h (oral lavage [9]; 1 h): 0.56; Formation of formazan dyes, absorbance, Means 2 h (oral lavage [9]; 2 h): 0.63; Formation of formazan dyes, absorbance, Means 3 h (oral lavage [9]; 3 h): 0.67; Formation of formazan dyes, absorbance, Means 4 h (oral lavage [9]; 4 h): 0.77; Formation of formazan dyes, absorbance, Means 6 h (oral lavage [9]; 6 h): 0.83; Formation of formazan dyes, absorbance, Means 8 h (oral lavage [9]; 8 h): 0.89; Formation of formazan dyes, absorbance, Means 10 h (oral lavage [9]; 10 h): 0.96; Formation of formazan dyes, absorbance, Means 12 h (oral lavage [9]; 12 h): 0.95; Absorbance, formation of formazan dyes (Means) (oral lavage [10]): 0.78 and 1.07 and 1.15 and 1.22; Absorbance, formation of formazan dyes (Means) (Malate dehydrogenase): 0.27 and 0.29 and 0.31 and 0.38; reduction by malate dehydrogenase alone (Malate dehydrogenase): did not catalyze the reduction; Formation of formazan dyes, absorbance, Means 0 h (diaphorase [11]; 0 h): 1.92; Formation of formazan dyes, absorbance, Means 1 h (diaphorase [11]; 1 h): 1.91; Formation of formazan dyes, absorbance, Means 2 h (diaphorase [11]; 2 h): 1.91; Formation of formazan dyes, absorbance, Means 3 h (diaphorase [11]; 3 h): 1.89; Formation of formazan dyes, absorbance, Means 4 h (diaphorase [11]; 4 h): 1.97; Formation of formazan dyes, absorbance, Means 6 h (diaphorase [11]; 6 h): 1.94; Formation of formazan dyes, absorbance, Means 8 h (diaphorase [11]; 8 h): 1.92; Formation of formazan dyes, absorbance, Means 10 h (diaphorase [11]; 10 h): 1.88; Formation of formazan dyes, absorbance, Means 12 h (diaphorase [11]; 12 h): 1.83; Formation of formazan dyes, absorbance, Means 0 h ([12]; Malate dehydrogenase, diaphorase and malate, 0 h): 0.51; Formation of formazan dyes, absorbance, Means 1 h ([12]; Malate dehydrogenase, diaphorase and malate, 1 h): 0.81; Formation of formazan dyes, absorbance, Means 2 h ([12]; Malate dehydrogenase, diaphorase and malate, 2 h): 0.99; Formation of formazan dyes, absorbance, Means 3 h ([12]; Malate dehydrogenase, diaphorase and malate, 3 h): 1.13; Formation of formazan dyes, absorbance, Means 4 h ([12]; Malate dehydrogenase, diaphorase and malate, 4 h): 1.25; Formation of formazan dyes, absorbance, Means 6 h ([12]; Malate dehydrogenase, diaphorase and malate, 6 h): 1.43; Formation of formazan dyes, absorbance, Means 8 h ([12]; Malate dehydrogenase, diaphorase and malate, 8 h): 1.57; Formation of formazan dyes, absorbance, Means 10 h ([12]; Malate dehydrogenase, diaphorase and malate, 10 h): 1.68; Formation of formazan dyes, absorbance, Means 12 h ([12]; Malate dehydrogenase, diaphorase and malate, 12 h): 1.75; conversion to reduced formazan dyes ([12]; malate dehydrogenase, diaphorase and malate (TABLE 10)): converted to reduced formazan dyes in a time-dependent fashion; also recorded: able to catalyze the reduction; Means absorbance 0 h [13]: 0.13; Means absorbance 1 h [13]: 0.13; Means absorbance 2 h [13]: 0.13; Means absorbance 3 h [13]: 0.15
